The record followed here is ChEMBL document CHEMBL3045072, “Anti-tyrosinase, antioxidant and antimicrobial activities of hydroxycinnamoylamides” (Med Chem Res, 2013).

In data set [1] the test system is Streptococcus pyogenes. The data set is described as follows: Antimicrobial activity against Streptococcus pyogenes 10535 assessed as growth inhibition after 24 hr by serial dilution method. It is filed as functional. The note with it: Streptococcus pyogenes, 10535, 24 h.
Data set [2] deals with Staphylococcus aureus. The data set is described as follows: Antimicrobial activity against Staphylococcus aureus 209 assessed as growth inhibition after 24 hr by serial dilution method. In kind it is functional. Conditions: Staphylococcus aureus, 209, 24 h.
A short description of data set [3]: Inhibition of autoxidation of pure triacylglycerols of sunflower oil at 1 mM by iodometric analysis. In kind it is toxicity. The note with it: 1000 µM.
Data set [4] relates to Radical scavenging activity. The data set is described as follows: Antioxidant activity assessed as DPPH radical scavenging activity at 3.6 mM after 20 min. It is filed as functional. Background: Loss of DPPH colour is used to gauge radical scavenging.
Data set [5] concerns Radical scavenging activity. The data set is described as follows: Antioxidant activity assessed as DPPH radical scavenging activity at 3.6 mM after 10 min. In kind it is functional.
Data set [6] concerns Radical scavenging activity. The data set is described as follows: Antioxidant activity assessed as DPPH radical scavenging activity at 1.8 mM after 20 min. In kind it is functional.
For data set [7], the system named is Radical scavenging activity. The data set is described as follows: Antioxidant activity assessed as DPPH radical scavenging activity at 0.9 mM after 20 min. In kind it is functional.
Data set [8] relates to Radical scavenging activity. Briefly: Antioxidant activity assessed as DPPH radical scavenging activity at 1.8 mM after 10 min. In kind it is functional.
For data set [9], the system named is Radical scavenging activity. The data set is described as follows: Antioxidant activity assessed as DPPH radical scavenging activity at 0.9 mM after 10 min. It is filed as functional.
The target in data set [10] is T1, Tyrosinase (Agaricus bisporus) (UniProt O42713).
T1 sequence (whole entry): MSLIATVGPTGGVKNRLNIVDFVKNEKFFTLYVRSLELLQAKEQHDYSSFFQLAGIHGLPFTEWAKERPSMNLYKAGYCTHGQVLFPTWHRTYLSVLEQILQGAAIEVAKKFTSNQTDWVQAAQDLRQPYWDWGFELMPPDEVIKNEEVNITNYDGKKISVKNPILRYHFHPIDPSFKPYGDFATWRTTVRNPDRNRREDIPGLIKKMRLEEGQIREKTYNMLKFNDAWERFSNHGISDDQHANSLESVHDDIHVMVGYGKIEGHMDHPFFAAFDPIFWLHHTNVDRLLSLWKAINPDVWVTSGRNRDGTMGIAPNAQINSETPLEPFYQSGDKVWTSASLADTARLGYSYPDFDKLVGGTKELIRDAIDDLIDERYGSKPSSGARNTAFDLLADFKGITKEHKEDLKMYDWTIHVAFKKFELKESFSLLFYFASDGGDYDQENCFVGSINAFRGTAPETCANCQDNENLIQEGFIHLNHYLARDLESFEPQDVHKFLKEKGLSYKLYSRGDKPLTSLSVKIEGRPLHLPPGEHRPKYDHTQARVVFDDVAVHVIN
The data set is described as follows: Inhibition of monophenolase activity of mushroom tyrosinase using L-tyrosine as substrate after 30 min by dopachrome method.

For orientation: MIC means the least concentration at which growth counts as inhibited.

Values after ≈ are worked out from the molar mass of the structure shown. Active and inactive are the calls of the source. The rule behind the calls is not given here.

As for `COc1cc(/C=C/C(=O)O)cc(OC)c1O` [SINAPINATE], the MIC in data set [1] and in data set [2] was 125 µg/mL (≈ 558 µM) in each case. For the same molecule, the “inhibition (INH)” value in data set [3] is “Active”. Further, the Activity in [4] came to 69.6%; in data set [5] it was 69%; in [6], 31.9%; in data set [7] it was 17.2%; in [8], 26.5%; in [9] it was 16.1%.

Consider `COC(=O)[C@H](Cc1ccc(O)c(O)c1)NC(=O)/C=C/c1ccc(O)cc1`, for which the “inhibition (INH)” value in data set [3] is “Active”. In addition, the Activity in [4] came to 67.1%; in data set [5] it was 64.4%; in data set [6], 34.8%; in data set [7], 19.1%; in data set [8] it was 33.3%; in data set [9], 18%. Moreover, in data set [10], the inhibition result was “Active”.

With `O=C(/C=C/c1ccc(O)cc1)NCCc1ccc(O)cc1`, the inhibition result in [10] was “Active”.

As to `O=C(O)/C=C/c1ccc(O)c(O)c1` [CAFFEIC ACID], the MIC in data set [1] and in data set [2] was 125 µg/mL (≈ 694 µM) throughout. Further, the “inhibition (INH)” value in [3] is “Active”. Further, the Activity was 91.8% in data set [4]; 88% in data set [5]; 64.3% in data set [6]; 34.1% in [7]; 62.1% in data set [8]; 33.5% in data set [9].

Turning to `COc1cc(/C=C/C(=O)NCCc2ccc(O)cc2)cc(OC)c1O` [TRANS-N-SINAPOYLTYRAMINE], the MIC in [1] and in data set [2] was 62.5 µg/mL (≈ 182 µM) each time. For the same molecule, the “inhibition (INH)” value in data set [3] was “Active”.

As to `O=C(O)/C=C/c1ccc(O)cc1` [COUMARIC ACID], the “inhibition (INH)” value in data set [3] was “Not Active”. Moreover, the Activity in data set [4] stood at 6.1%; in data set [5], 4.5%; in data set [6], 4.7%; in [7], 2.9%; in data set [8], 3.7%; in data set [9] it was 2.1%. Moreover, the inhibition entry in data set [10] was “Active”.

Consider `Oc1ccc(O)cc1`, for which the inhibition result in data set [10] is “Active”.

In the case of `O=C(/C=C/c1ccc(O)cc1)NCCc1ccc(O)c(O)c1`, in data set [10], the inhibition entry is “Active”.

Turning to `COC(=O)[C@H](Cc1c[nH]c2ccccc12)NC(=O)/C=C/c1ccc(O)c(O)c1`, the minimum inhibitory concentration (MIC) in data set [1] was found to be 250 µg/mL (≈ 657 µM). Further, the “inhibition (INH)” value in data set [3] is “Active”. Besides, the Activity worked out at 87.9% in data set [4]; 80.1% in data set [5]; 50.4% in data set [6]; 28.7% in data set [7]; 44.6% in [8]; 27.1% in data set [9].

For the molecule `COC(=O)[C@H](Cc1ccc(O)cc1)NC(=O)/C=C/c1ccc(O)cc1`, the Activity came out at 1.88% in data set [4]; 1.44% in [5]; 1.42% in [6]; 0.71% in [7]; 1.04% in data set [8]; 0.64% in data set [9]. Besides, in data set [10], the inhibition result was “Active”.

Take `COc1cc(/C=C/C(=O)O)ccc1O` [FERULATE]: the MIC in data set [1] and in [2] was 125 µg/mL (≈ 644 µM) in each case. The “inhibition (INH)” value in data set [3] is given as “Active”. For the same molecule, the Activity in data set [4] is 44.3%; in data set [5], 36.7%; in data set [6], 25.1%; in [7], 13.8%; in data set [8] it was 21%; in [9] it was 12.6%.
